Measured values as given in ChEMBL document CHEMBL6078713, “Synthesis and mechanistic studies of 4-aminoquinoline-Isatin molecular hybrids and Schiff's bases as promising antimicrobial agents” (Eur J Med Chem, 2025).
Converted amounts (≈) assume the structure as drawn.

What was measured:
Escherichia coli [1] = experiment: Antibacterial activity against Escherichia coli MTCC 443 assessed as diameter of zone of inhibition at 500 ug/ml by agar disk diffusion method; format: functional; details: read-out: DIZ
Enterococcus faecalis [2] = experiment: Antibacterial activity against Enterococcus faecalis MTCC 439 assessed as diameter of zone of inhibition at 500 ug/ml by agar disk diffusion method; format: functional; details: read-out: DIZ
Bacillus subtilis [3] = experiment: Antibacterial activity against Bacillus subtilis MTCC 736 assessed as diameter of zone of inhibition at 500 ug/ml by agar disk diffusion method; format: functional; details: read-out: DIZ
Staphylococcus aureus [4] = experiment: Antibacterial activity against Staphylococcus aureus MTCC 902 assessed as diameter of zone of inhibition at 500 ug/ml by agar disk diffusion method; format: functional; details: read-out: DIZ
Pseudomonas aeruginosa [5] = experiment: Antibacterial activity against Pseudomonas aeruginosa MTCC 2453 assessed as diameter of zone of inhibition at 500 ug/ml by agar disk diffusion method; format: functional; details: read-out: DIZ
Salmonella typhi [6] = experiment: Antibacterial activity against Salmonella typhi assessed as diameter of zone of inhibition at 500 ug/ml by agar disk diffusion method; format: functional, Salmonella enterica subsp. enterica serovar Typhi; details: Salmonella enterica, read-out: DIZ
Escherichia coli [7] = experiment: Antibacterial activity against Escherichia coli MTCC 443 assessed as inhibition of bacterial growth incubated overnight by serial dilution based spectrophotometer; format: functional
Enterococcus faecalis [8] = experiment: Antibacterial activity against Enterococcus faecalis MTCC 439 assessed as inhibition of bacterial growth incubated overnight by serial dilution based spectrophotometer; format: functional
Bacillus subtilis [9] = experiment: Antibacterial activity against Bacillus subtilis MTCC 736 assessed as inhibition of bacterial growth incubated overnight by serial dilution based spectrophotometer; format: functional
Staphylococcus aureus [10] = experiment: Antibacterial activity against Staphylococcus aureus MTCC 902 assessed as inhibition of bacterial growth incubated overnight by serial dilution based spectrophotometer; format: functional
Pseudomonas aeruginosa [11] = experiment: Antibacterial activity against Pseudomonas aeruginosa MTCC 2453 assessed as inhibition of bacterial growth incubated overnight by serial dilution based spectrophotometer; format: functional
Salmonella typhi [12] = experiment: Antibacterial activity against Salmonella typhi assessed as inhibition of bacterial growth incubated overnight by serial dilution based spectrophotometer; format: functional, Salmonella enterica subsp. enterica serovar Typhi; details: Salmonella enterica
Escherichia coli [13] = experiment: Bactericidal activity against Escherichia coli MTCC 443 assessed as inhibition of bacterial growth incubated overnight; format: functional
Staphylococcus aureus [14] = experiment: Bactericidal activity against Staphylococcus aureus MTCC 902 assessed as inhibition of bacterial growth incubated overnight; format: functional
Pseudomonas aeruginosa [15] = experiment: Bactericidal activity against Pseudomonas aeruginosa MTCC 2453 assessed as inhibition of bacterial growth incubated overnight; format: functional
Salmonella typhi [16] = experiment: Bactericidal activity against Salmonella typhi assessed as inhibition of bacterial growth incubated overnight; format: functional, Salmonella enterica subsp. enterica serovar Typhi; details: Salmonella enterica
Escherichia coli [17] = experiment: Ratio of MBC for antibacterial activity against Escherichia coli MTCC 443 to MIC for bactericidal activity against Escherichia coli MTCC 443; format: functional
Salmonella typhi [18] = experiment: Ratio of MBC for antibacterial activity against Salmonella typhi to MIC for bactericidal activity against Salmonella typhi; format: functional, Salmonella enterica subsp. enterica serovar Typhi
Enterococcus faecalis [19] = experiment: Bactericidal activity against Enterococcus faecalis MTCC 439 assessed as inhibition of bacterial growth incubated overnight; format: functional
Bacillus subtilis [20] = experiment: Bactericidal activity against Bacillus subtilis MTCC 736 assessed as inhibition of bacterial growth incubated overnight; format: functional
Enterococcus faecalis [21] = experiment: Ratio of MBC for antibacterial activity against Enterococcus faecalis MTCC 439 to MIC for bactericidal activity against Enterococcus faecalis MTCC 439; format: functional
Bacillus subtilis [22] = experiment: Ratio of MBC for antibacterial activity against Bacillus subtilis MTCC 736 to MIC for bactericidal activity against Bacillus subtilis MTCC 736; format: functional
Pseudomonas aeruginosa [23] = experiment: Ratio of MBC for antibacterial activity against Pseudomonas aeruginosa MTCC 2453 to MIC for bactericidal activity against Pseudomonas aeruginosa MTCC 2453; format: functional
Escherichia coli [24] = experiment: Antibacterial activity against Escherichia coli clinical isolate ECJH2 assessed as diameter of zone of inhibition by disk diffusion assay; format: functional
Escherichia coli [25] = experiment: Antibacterial activity against Escherichia coli clinical isolate ECJH3 assessed as diameter of zone of inhibition by disk diffusion assay; format: functional
Escherichia coli [26] = experiment: Antibacterial activity against Escherichia coli clinical isolate ECJH5 assessed as diameter of zone of inhibition by disk diffusion assay; format: functional
Escherichia coli [27] = experiment: Antibacterial activity against Escherichia coli clinical isolate ECJH6 assessed as diameter of zone of inhibition by disk diffusion assay; format: functional
Escherichia coli [28] = experiment: Antibacterial activity against Escherichia coli clinical isolate ECJH7 assessed as diameter of zone of inhibition by disk diffusion assay; format: functional
Escherichia coli [29] = experiment: Antibacterial activity against Escherichia coli clinical isolate ECJH8 assessed as diameter of zone of inhibition by disk diffusion assay; format: functional
Escherichia coli [30] = experiment: Antibacterial activity against Escherichia coli clinical isolate ECJH9 assessed as diameter of zone of inhibition by disk diffusion assay; format: functional
Escherichia coli [31] = experiment: Antibacterial activity against Escherichia coli clinical isolate ECJH10 assessed as diameter of zone of inhibition by disk diffusion assay; format: functional
Escherichia coli [32] = experiment: Antibacterial activity against Escherichia coli clinical isolate ECJH11 assessed as diameter of zone of inhibition by disk diffusion assay; format: functional
Escherichia coli [33] = experiment: Antibacterial activity against Escherichia coli clinical isolate ECJH15 assessed as diameter of zone of inhibition by disk diffusion assay; format: functional
Escherichia coli [34] = experiment: Antibacterial activity against Escherichia coli clinical isolate ECJH16 assessed as diameter of zone of inhibition by disk diffusion assay; format: functional
Escherichia coli [35] = experiment: Antibacterial activity against Escherichia coli clinical isolate ECJH17 assessed as diameter of zone of inhibition by disk diffusion assay; format: functional
Escherichia coli [36] = experiment: Antibacterial activity against Escherichia coli clinical isolate ECJH18 assessed as diameter of zone of inhibition by disk diffusion assay; format: functional
Escherichia coli [37] = experiment: Antibacterial activity against Escherichia coli clinical isolate ECJH19 assessed as diameter of zone of inhibition by disk diffusion assay; format: functional
Escherichia coli [38] = experiment: Antibacterial activity against Escherichia coli clinical isolate ECJH21 assessed as diameter of zone of inhibition by disk diffusion assay; format: functional
Escherichia coli [39] = experiment: Antibacterial activity against Escherichia coli clinical isolate ECJH23 assessed as diameter of zone of inhibition by disk diffusion assay; format: functional
Escherichia coli [40] = experiment: Antibacterial activity against Escherichia coli clinical isolate ECJH24 assessed as diameter of zone of inhibition by disk diffusion assay; format: functional
Escherichia coli [41] = experiment: Antibacterial activity against Escherichia coli clinical isolate ECJH25 assessed as diameter of zone of inhibition by disk diffusion assay; format: functional
Staphylococcus aureus [42] = experiment: Antibacterial activity against Staphylococcus aureus assessed as inhibition of bacterial growth; format: functional

| SMILES | zone of inhibition at 500 µg/mL (Escherichia coli [1]) [mm] | zone of inhibition at 500 µg/mL (Enterococcus faecalis [2]) [mm] | zone of inhibition at 500 µg/mL (Bacillus subtilis [3]) [mm] | zone of inhibition at 500 µg/mL (Staphylococcus aureus [4]) [mm] | zone of inhibition at 500 µg/mL (Pseudomonas aeruginosa [5]) [mm] | zone of inhibition at 500 µg/mL (Salmonella typhi [6]) [mm] | MIC (Escherichia coli [7]) [µg/mL] | MIC (Enterococcus faecalis [8]) [µg/mL] | MIC (Bacillus subtilis [9]) [µg/mL] | MIC (Staphylococcus aureus [10]) [µg/mL] | MIC (Pseudomonas aeruginosa [11]) [µg/mL] | MIC (Salmonella typhi [12]) [µg/mL] | MBC (Escherichia coli [13]) [µg/mL] | MBC (Staphylococcus aureus [14]) [µg/mL] | MBC (Pseudomonas aeruginosa [15]) [µg/mL] | MBC (Salmonella typhi [16]) [µg/mL] | Ratio (Escherichia coli [17]) | Ratio (Salmonella typhi [18]) | MBC (Enterococcus faecalis [19]) [µg/mL] | Ratio (Enterococcus faecalis [21]) | also measured |
| --- | --- | --- | --- | --- | --- | --- | --- | --- | --- | --- | --- | --- | --- | --- | --- | --- | --- | --- | --- | --- | --- |
| CC(C)c1ccc(/C=N/CCNc2ccnc3cc(Cl)ccc23)cc1 | 10 | 7 | 8 | 9 | 12 | 10 | 256 (≈ 728 µM) | > 512 | > 512 | 512 (≈ 1460 µM) | 256 (≈ 728 µM) | 256 (≈ 728 µM) | 256 (≈ 728 µM) | > 512 | > 512 | 256 (≈ 728 µM) | 1 | 1 | – | – | – |
| Clc1ccc2c(NCC/N=C/c3ccc[nH]3)ccnc2c1 | 9 | 8 | 9 | 10 | 7 | 9 | 256 (≈ 857 µM) | 512 (≈ 1710 µM) | 512 (≈ 1710 µM) | 512 (≈ 1710 µM) | > 512 | > 512 | 512 (≈ 1710 µM) | > 512 | – | – | 2 | – | 512 (≈ 1710 µM) | 1 | MBC (Bacillus subtilis [20]): 512 µg/mL (≈ 1710 µM); Ratio (Bacillus subtilis [22]): 1 |
| Clc1ccc2c(NCC/N=C/c3ccccn3)ccnc2c1 | 11 | 8 | 9 | 8 | 9 | 7 | 256 (≈ 824 µM) | 512 (≈ 1650 µM) | 512 (≈ 1650 µM) | 512 (≈ 1650 µM) | 512 (≈ 1650 µM) | > 512 | 512 (≈ 1650 µM) | > 512 | 512 (≈ 1650 µM) | – | 2 | – | 512 (≈ 1650 µM) | 1 | MBC (Bacillus subtilis [20]): > 512 µg/mL; Ratio (Pseudomonas aeruginosa [23]): 1 |
| CC1(C)S[C@@H]2[C@H](NC(=O)[C@H](N)c3ccccc3)C(=O)N2[C@H]1C(=O)O [AMPICILLIN] | – | – | – | – | – | – | – | – | – | – | – | – | – | – | – | – | – | – | – | – | diameter of the inhibition zone (DIZ) (Escherichia coli [24]): 22 mm; diameter of the inhibition zone (DIZ) (Escherichia coli [25]): 19 mm; diameter of the inhibition zone (DIZ) (Escherichia coli [26]): 18 mm; diameter of the inhibition zone (DIZ) (Escherichia coli [27]): 14 mm; diameter of the inhibition zone (DIZ) (Escherichia coli [28]): 24 mm; diameter of the inhibition zone (DIZ) (Escherichia coli [29]): 21 mm; diameter of the inhibition zone (DIZ) (Escherichia coli [30]): 16 mm; diameter of the inhibition zone (DIZ) (Escherichia coli [31]): 18 mm; diameter of the inhibition zone (DIZ) (Escherichia coli [32]): 21 mm; diameter of the inhibition zone (DIZ) (Escherichia coli [33]): 20 mm; diameter of the inhibition zone (DIZ) (Escherichia coli [34]): 17 mm; diameter of the inhibition zone (DIZ) (Escherichia coli [35]): 16 mm; diameter of the inhibition zone (DIZ) (Escherichia coli [36]): 17 mm; diameter of the inhibition zone (DIZ) (Escherichia coli [37]): 17 mm; diameter of the inhibition zone (DIZ) (Escherichia coli [38]): 18 mm; diameter of the inhibition zone (DIZ) (Escherichia coli [39]): 20 mm; diameter of the inhibition zone (DIZ) (Escherichia coli [40]): 22 mm; diameter of the inhibition zone (DIZ) (Escherichia coli [41]): 22 mm |
| CCCCCCCCCCCCOC(=O)c1cc(OCCCCCCCCCCCC)nc2ccccc12 | – | – | – | – | – | – | – | – | – | – | – | – | – | – | – | – | – | – | – | – | MIC (Staphylococcus aureus [42]): 6.25 µg/mL (≈ 11.9 µM) |
| O=[N+]([O-])c1ccc(/C=N/CCNc2ccnc3cc(Cl)ccc23)cc1 | 12 | 9 | 8 | 10 | 8 | 10 | 256 (≈ 722 µM) | 256 (≈ 722 µM) | 512 (≈ 1440 µM) | 256 (≈ 722 µM) | 512 (≈ 1440 µM) | 256 (≈ 722 µM) | 256 (≈ 722 µM) | > 512 | > 512 | 256 (≈ 722 µM) | 1 | 1 | 256 (≈ 722 µM) | 1 | MBC (Bacillus subtilis [20]): 512 µg/mL (≈ 1440 µM); Ratio (Bacillus subtilis [22]): 1 |
| Oc1cccc(/C=N/CCNc2ccnc3cc(Cl)ccc23)c1 | 13 | 10 | 9 | 10 | 8 | 10 | 256 (≈ 786 µM) | 512 (≈ 1570 µM) | > 512 | 512 (≈ 1570 µM) | > 512 | 256 (≈ 786 µM) | 256 (≈ 786 µM) | > 512 | – | 256 (≈ 786 µM) | 1 | 1 | 512 (≈ 1570 µM) | 1 | – |
